Results: US7678390B2, “Carbon monoxide as a biomarker and therapeutic agent” (priority 1999, dated 2010)
Marks after values point to notes of the source that are not given here.

Legend:
p38 MAP kinase = experiment: LPS-induced MAP kinase activation, Western blot (p38); assay type: cell-based, mouse; settings: RAW 264.7 macrophages, LPS in the presence of CO
Excerpt: (§1) Animals. Male C57BL/6 and IL-10 (−/−) mice were purchased from Jackson Laboratory (Bar Harbor, Me.), and allowed to acclimate for one week with rodent chow and water ad libitum. The MKK (−/−) mice were generated as previously described [Lu, et al., EMBO J. 18:1845-1857 (1999)]. Wild type littermates were used as controls. All animals were housed in accordance with guidelines from the American Association for Laboratory Animal Care and Research Protocols and were approved by the Animal Care and Use Committee of Yale University School of Medicine. Reagents. All reagents were purchased from Sigma Chemical Co. (St Louis, Mo.) unless specified otherwise. Plasmid Construct. Plasmid pSFFV/HO-1 was constructed by insertion of the rat HO-1 cDNA [Shibahara, et al., Proc. Natl. Acad. Sci. USA. 82: 7865-7869 (1985)] downstream of the Friend spleen focus-forming virus 5′ long-terminal repeat in the mammalian expression vector pSFFV/neo [Fuhlbrigge, et al, Proc. Natl. Acad. Sci. USA. 85: 5649-5653 (1988)] (kindly provided by Stanley Korsmeyer). Transfection. […] Gas samples were taken by the analyzer through a port in the top of the chambers at a rate of 1 L/min and analyzed by electrochemical detection, with a sensitivity of 10-600 ppm. Concentration levels were measured hourly and there were no fluctuations in the CO concentrations once the chamber had equilibrated (approximately 5 min). […]

[1] = tested on: rat pulmonary vascular smooth muscle cells; experiment: cGMP radioimmunoassay in vascular smooth muscle cells; assay type: cell-based; settings: 2 h
Excerpt: as §1

MKK3/MKK6 = experiment: LPS-induced activation of MKK3/MKK6 in RAW 264.7 cells; assay type: cell-based, mouse; settings: LPS in the presence of CO (data not shown)
Excerpt: as §1

[2] = tested on: rats given lipopolysaccharide; experiment: LPS-induced neutrophil influx into the airways of rats; assay type: in vivo, rat; settings: LPS 3 mg/kg i.v., exposed to CO
Procedure: Animals were anesthesized with sodium pentobarbital 24 h after LPS administration or 56 h of hyperoxia exposure. BAL (35 ml/kg) was performed 4 times with PBS (pH 7.4). Cells were pooled from the lavages and centrifuged at 1200 g for 10 min. The supernatant was discarded and cells were resuspended in PBS. Cell counts were performed using a Neubaur hemocytometer. For differential analysis, samples were cytocentrifuged and stained with Diff-Quik. Measurement of Injury Markers Rats were removed at 56 h of hyperoxia and anesthetized with sodium pentobarbital. The pleural effusion was collected by inserting an 18 gauge needle and 10 cc syringe through the diaphragm and withdrawing all fluid present in the pleural cavity. BAL was performed as described above, and the first lavage was centrifuged at 1200 g for 10 min and the supernatant was assayed for the protein albumin as determined by Bromcresol Green Kit (BCG) from Sigma (St. Louis, Mo.). […] At each time point, 1 cc of blood was drawn into a heparinized syringe, sealed and placed on ice until analyzed for oxygen tension. Arterial oxygen tension and carboxyhemoglobin were determined using a BG3 Instrumentation Laboratory Blood Gas Analyzer and Co-oximeter (Boston, Mass.). […]

Question: For `[C-]#[O+]` [CO, carbon monoxide], which “LPS-induced p38 MAP kinase activation” value (p38 MAP kinase) is on record?
Answer: significantly augmented

Question: And the cGMP ([1]; VSM (vascular smooth muscle cells), CO 250 ppm)?
Answer: 8.1 ± 2^c pmol/mg protein

Question: And the “increase in cGMP content” value ([1]; smooth muscle cells, 250 ppm CO)?
Answer: 16 fold

Question: What about the “MKK3/MKK6 activation by LPS” value (MKK3/MKK6) of the same molecule?
Answer: augmentation

Question: And the “LPS-induced neutrophil influx into the airways” value [2]?
Answer: significantly inhibited
